Results taken from patent publication US11931341B2, “Compositions and methods for the treatment and prevention of muscular dystrophy” (University of Iowa Research Foundation, priority 2018, dated 2024).

Tests used:
Type in all cases: in vivo
[1] = system: δSgcd−/− mouse model; assay: Autonomic function by radiotelemetry in δSgcd−/− mouse model of limb-girdle muscular dystrophy; conditions: Sgcd−/− mice, C21 0.03 mg/kg/day SC osmotic minipump for eight weeks
Experimental: (§1) The effect of C21 was evaluated in a δSgcd−/− mouse model, which is a genetically modified model to imitate limb-girdle muscular dystrophy (LGMD). At 3 weeks of age, δSgcd−/− mice and control mice were administrated C21 (0.03 mg/kg/day, osmotic minipump, SC) or vehicle for eight weeks. Data from conscious mice were collected during the last week of treatment. At the end of the experiment, tissues were harvested for histopathology and molecular gene expression measurements.
(§2) A radiotelemetry probe (PC10-DSI) that enabled measurement of arterial blood pressure (BP), heart rate (HR) and locomotor activity was inserted into the thoracic aorta through the left common carotid artery under 2% isoflurane anesthesia when the mice were 9 weeks of age. When the mice reached 11-12 weeks of age, changes in BP, HR, and locomotor activity were measured over a minimum of 24 hours at a sampling rate of 500 Hz. In addition, BP was continuously recorded at a high sampling frequency of 2000 Hz for 1-2 hours, to collect data for assessment of spontaneous baroreflex sensitivity (sequence technique), sympathetic tone (HR changes with propranolol) and vagal tone (HR changes with methylatropine).

[2] = system: δSgcd−/− mouse model; assay: Spontaneous locomotor activity by radiotelemetry in δSgcd−/− mouse model; conditions: sgcd−/− mice, C21 0.03 mg/kg/day SC osmotic minipump for eight weeks (FIG. 2)
Experimental: as §1, §2

[3] = system: δSgcd−/− mouse model; assay: Cardiac function by echocardiography in δSgcd−/− mouse model; conditions: older-aged sgcd−/− mice, echocardiography (FIG. 3)
Experimental: as §1, with “At 3 weeks of age, δSgcd−/− mice and control mice were administrated C21 (0.03 mg/kg/day, osmotic minipump, SC) or vehicle for eight weeks.” left out
Echocardiography was performed in telemeter-implanted mice using Philips Sonos 5500 clinical imager in mice sedated with midazolam.

## CCCCOC(=O)NS(=O)(=O)c1sc(CC(C)C)cc1-c1ccc(Cn2ccnc2)cc1 [Compound C21, N-butyloxycarbonyl-3-(4-imidazol-1-ylmethylphenyl)-5-iso-butylthiophene-2-sulfonamide]
[1]; compared to sgcd−/− placebo treated mice (FIG. 1)
  baroreflex sensitivity: increase
[1]; compared to sgcd−/− placebo treated mice, HR changes with methylatropine (FIG. 1)
  vagal tone: increase
[1]; compared to sgcd−/− placebo treated mice, HR changes with propranolol (FIG. 1)
  sympathetic tone: decreased
[2]
  spontaneous locomotor activity: increased the spontaneous locomotor activity to levels comparative to control animals
[3]
  cardiac function measured as end diastolic volume, end systolic volume and ejection fraction: improved the cardiac function
